Results published in patent US20040152747A1, “Thiazole compounds for treatment of neurodegenerative disorders” (Pfizer Inc, priority 2002, published 2004).

System: gamma-secretase
Assay: gamma-secretase activity in a solubilized membrane preparation (cell-free assay, McLendon et al.)
Assay type: biochemical
Details: read-out: IC50 activity for inhibiting gamma-secretase activity
Protocol: The activity of compounds of the invention in inhibiting gamma-secretase activity was determined in a solubilized membrane preparation generally according to the description provided in McLendon et al. Cell-free assays for γ-secretase activity, The FASEB Journal (Vol. 14, December 2000, pp. 2383-2386).

- IC50: ~5 µM
SMILES: CCC(NC(=O)Cc1cc(F)cc(F)c1)C(=O)Nc1ncc(-c2ccc(Br)s2)s1 (stereo not shown) [Example 11, N-[5-(5-bromo-thiophen-2-yl)-thiazol-2-yl]-2-[2-(3,5-difluoro-phenyl)-acetylamino]-butyramide]
